What follows are compounds tested on MDA-MB-436 (assay: normalised response (% of control), CellTox Green; higher = less cell death (100 = DMSO, 0 = benzethonium chloride kill control)). Details: incubation time: 72 h.
How it was run: (§1)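 CellTox Green fluorescence (485/520 nm) and, after 10 min at room temperature, CellTiter-Glo luminescence were read from breast cancer cell lines incubated 72 h in 384-well plates. Cells were seeded as 20 µl suspension onto compound at 5 concentrations in 10-fold steps over a 10,000-fold range chosen per compound. Each plate was normalised to 0.1 % DMSO (100) and a positive kill control (0). Values are normalised signals, one per concentration.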

Row | SMILES | normalised response [%]
1 | N#Cc1ccc(COC[C@H]2O[C@@H](n3c(NCc4ccc(Cl)c(Cl)c4)nc4c(N)ncnc43)[C@H](O)[C@@H]2O)cc1 (100 nM) | 96
2 | COc1cc(O)c2c(c1)/C=C/C[C@H](O)[C@H](O)C(=O)/C=C\C[C@H](C)OC2=O [(5Z)-7-Oxozeaenol] (100 nM) | 104
3 | COc1cc(OC2CCN(C)CC2)ccc1Nc1ncc2c(n1)n(C1CCCC1)c(=O)n2C [AZ 3146] (100 nM) | 77.7
4 | CNC(=O)c1cccc(-c2ccc3c(N4CCOC[C@@H]4C)nc(N4CCOC[C@@H]4C)nc3n2)c1 [AZD2014] (100 nM) | 118
5 | O=C(/C=C/c1cccc(S(=O)(=O)Nc2ccccc2)c1)NO [Belinostat] (100 nM) | 93.2
6 | Cc1ccc(NC(=O)c2ccc(CN3CCN(C)CC3)cc2)cc1Nc1nc(-c2cccnc2)cs1 [Masitinib] (100 nM) | 73.4
7 | COC(=O)c1ccc2c(c1)NC(=O)/C2=C(\Nc1ccc(N(C)C(=O)CN2CCN(C)CC2)cc1)c1ccccc1 [Nintedanib] (100 nM) | 93
8 | S=P(N1CC1)(N1CC1)N1CC1 [Thio-TEPA] (500 nM) | 85.2

What follows are compounds tested on CAL-120 in the same assay as above. Details: incubation time: 72 h.
How it was run: as §1

Row | SMILES | normalised response [%]
9 | N#Cc1ccc(COC[C@H]2O[C@@H](n3c(NCc4ccc(Cl)c(Cl)c4)nc4c(N)ncnc43)[C@H](O)[C@@H]2O)cc1 (100 nM) | 99.7
10 | COc1cc(O)c2c(c1)/C=C/C[C@H](O)[C@H](O)C(=O)/C=C\C[C@H](C)OC2=O [(5Z)-7-Oxozeaenol] (100 nM) | 104
11 | COc1cc(OC2CCN(C)CC2)ccc1Nc1ncc2c(n1)n(C1CCCC1)c(=O)n2C [AZ 3146] (100 nM) | 96.9
12 | CNC(=O)c1cccc(-c2ccc3c(N4CCOC[C@@H]4C)nc(N4CCOC[C@@H]4C)nc3n2)c1 [AZD2014] (100 nM) | 101
13 | O=C(/C=C/c1cccc(S(=O)(=O)Nc2ccccc2)c1)NO [Belinostat] (100 nM) | 99.2
14 | Cc1ccc(NC(=O)c2ccc(CN3CCN(C)CC3)cc2)cc1Nc1nc(-c2cccnc2)cs1 [Masitinib] (100 nM) | 98.9
15 | COC(=O)c1ccc2c(c1)NC(=O)/C2=C(\Nc1ccc(N(C)C(=O)CN2CCN(C)CC2)cc1)c1ccccc1 [Nintedanib] (100 nM) | 100
16 | S=P(N1CC1)(N1CC1)N1CC1 [Thio-TEPA] (500 nM) | 97
17 | CN(C)CCOc1ccc(/C(=C(/CCCl)c2ccccc2)c2ccccc2)cc1 [Toremifene] (100 nM) | 102

These compounds were tested on BT-549 in the same assay as above. Details: incubation time: 72 h.
How it was run: as §1

Row | SMILES | normalised response [%]
18 | N#Cc1ccc(COC[C@H]2O[C@@H](n3c(NCc4ccc(Cl)c(Cl)c4)nc4c(N)ncnc43)[C@H](O)[C@@H]2O)cc1 (100 nM) | 99.3
19 | COc1cc(O)c2c(c1)/C=C/C[C@H](O)[C@H](O)C(=O)/C=C\C[C@H](C)OC2=O [(5Z)-7-Oxozeaenol] (100 nM) | 91.1
20 | COc1cc(OC2CCN(C)CC2)ccc1Nc1ncc2c(n1)n(C1CCCC1)c(=O)n2C [AZ 3146] (100 nM) | 111
21 | CNC(=O)c1cccc(-c2ccc3c(N4CCOC[C@@H]4C)nc(N4CCOC[C@@H]4C)nc3n2)c1 [AZD2014] (100 nM) | 101
22 | O=C(/C=C/c1cccc(S(=O)(=O)Nc2ccccc2)c1)NO [Belinostat] (100 nM) | 100
23 | Cc1ccc(NC(=O)c2ccc(CN3CCN(C)CC3)cc2)cc1Nc1nc(-c2cccnc2)cs1 [Masitinib] (100 nM) | 91
24 | COC(=O)c1ccc2c(c1)NC(=O)/C2=C(\Nc1ccc(N(C)C(=O)CN2CCN(C)CC2)cc1)c1ccccc1 [Nintedanib] (100 nM) | 101
25 | S=P(N1CC1)(N1CC1)N1CC1 [Thio-TEPA] (500 nM) | 108
26 | CN(C)CCOc1ccc(/C(=C(/CCCl)c2ccccc2)c2ccccc2)cc1 [Toremifene] (100 nM) | 92.8

What follows are compounds tested on CAL-51 in the same assay as above. Details: incubation time: 72 h.
How it was run: as §1

Row | SMILES | normalised response [%]
27 | N#Cc1ccc(COC[C@H]2O[C@@H](n3c(NCc4ccc(Cl)c(Cl)c4)nc4c(N)ncnc43)[C@H](O)[C@@H]2O)cc1 (100 nM) | 114
28 | COc1cc(O)c2c(c1)/C=C/C[C@H](O)[C@H](O)C(=O)/C=C\C[C@H](C)OC2=O [(5Z)-7-Oxozeaenol] (100 nM) | 109
29 | COc1cc(OC2CCN(C)CC2)ccc1Nc1ncc2c(n1)n(C1CCCC1)c(=O)n2C [AZ 3146] (100 nM) | 111
30 | CNC(=O)c1cccc(-c2ccc3c(N4CCOC[C@@H]4C)nc(N4CCOC[C@@H]4C)nc3n2)c1 [AZD2014] (100 nM) | 49.6
31 | O=C(/C=C/c1cccc(S(=O)(=O)Nc2ccccc2)c1)NO [Belinostat] (100 nM) | 83.8
32 | Cc1ccc(NC(=O)c2ccc(CN3CCN(C)CC3)cc2)cc1Nc1nc(-c2cccnc2)cs1 [Masitinib] (100 nM) | 104
33 | COC(=O)c1ccc2c(c1)NC(=O)/C2=C(\Nc1ccc(N(C)C(=O)CN2CCN(C)CC2)cc1)c1ccccc1 [Nintedanib] (100 nM) | 109
34 | S=P(N1CC1)(N1CC1)N1CC1 [Thio-TEPA] (500 nM) | 113
35 | CN(C)CCOc1ccc(/C(=C(/CCCl)c2ccccc2)c2ccccc2)cc1 [Toremifene] (100 nM) | 110

These compounds were tested on HCC1599 in the same assay as above. Details: incubation time: 72 h.
How it was run: as §1

Row | SMILES | normalised response [%]
36 | N#Cc1ccc(COC[C@H]2O[C@@H](n3c(NCc4ccc(Cl)c(Cl)c4)nc4c(N)ncnc43)[C@H](O)[C@@H]2O)cc1 (100 nM) | 115
37 | COc1cc(O)c2c(c1)/C=C/C[C@H](O)[C@H](O)C(=O)/C=C\C[C@H](C)OC2=O [(5Z)-7-Oxozeaenol] (100 nM) | 108
38 | COc1cc(OC2CCN(C)CC2)ccc1Nc1ncc2c(n1)n(C1CCCC1)c(=O)n2C [AZ 3146] (100 nM) | 96.6
39 | CNC(=O)c1cccc(-c2ccc3c(N4CCOC[C@@H]4C)nc(N4CCOC[C@@H]4C)nc3n2)c1 [AZD2014] (100 nM) | 93
40 | O=C(/C=C/c1cccc(S(=O)(=O)Nc2ccccc2)c1)NO [Belinostat] (100 nM) | 104
41 | Cc1ccc(NC(=O)c2ccc(CN3CCN(C)CC3)cc2)cc1Nc1nc(-c2cccnc2)cs1 [Masitinib] (100 nM) | 101
42 | COC(=O)c1ccc2c(c1)NC(=O)/C2=C(\Nc1ccc(N(C)C(=O)CN2CCN(C)CC2)cc1)c1ccccc1 [Nintedanib] (100 nM) | 95.1
43 | S=P(N1CC1)(N1CC1)N1CC1 [Thio-TEPA] (500 nM) | 97.2
44 | CN(C)CCOc1ccc(/C(=C(/CCCl)c2ccccc2)c2ccccc2)cc1 [Toremifene] (100 nM) | 99.1

The compounds below were run on BT-474 in the same assay as above. Details: incubation time: 72 h.
How it was run: as §1

Row | SMILES | normalised response [%]
45 | N#Cc1ccc(COC[C@H]2O[C@@H](n3c(NCc4ccc(Cl)c(Cl)c4)nc4c(N)ncnc43)[C@H](O)[C@@H]2O)cc1 (100 nM) | 100
46 | COc1cc(O)c2c(c1)/C=C/C[C@H](O)[C@H](O)C(=O)/C=C\C[C@H](C)OC2=O [(5Z)-7-Oxozeaenol] (100 nM) | 104
47 | COc1cc(OC2CCN(C)CC2)ccc1Nc1ncc2c(n1)n(C1CCCC1)c(=O)n2C [AZ 3146] (100 nM) | 98.3
48 | CNC(=O)c1cccc(-c2ccc3c(N4CCOC[C@@H]4C)nc(N4CCOC[C@@H]4C)nc3n2)c1 [AZD2014] (100 nM) | 102
49 | O=C(/C=C/c1cccc(S(=O)(=O)Nc2ccccc2)c1)NO [Belinostat] (100 nM) | 96.7
50 | Cc1ccc(NC(=O)c2ccc(CN3CCN(C)CC3)cc2)cc1Nc1nc(-c2cccnc2)cs1 [Masitinib] (100 nM) | 95.3
51 | COC(=O)c1ccc2c(c1)NC(=O)/C2=C(\Nc1ccc(N(C)C(=O)CN2CCN(C)CC2)cc1)c1ccccc1 [Nintedanib] (100 nM) | 102
52 | S=P(N1CC1)(N1CC1)N1CC1 [Thio-TEPA] (500 nM) | 94.3
53 | CN(C)CCOc1ccc(/C(=C(/CCCl)c2ccccc2)c2ccccc2)cc1 [Toremifene] (100 nM) | 101

These compounds were tested on MDA-MB-453 in the same assay as above. Details: incubation time: 72 h.
How it was run: as §1

Row | SMILES | normalised response [%]
54 | N#Cc1ccc(COC[C@H]2O[C@@H](n3c(NCc4ccc(Cl)c(Cl)c4)nc4c(N)ncnc43)[C@H](O)[C@@H]2O)cc1 (100 nM) | 110
55 | COc1cc(O)c2c(c1)/C=C/C[C@H](O)[C@H](O)C(=O)/C=C\C[C@H](C)OC2=O [(5Z)-7-Oxozeaenol] (100 nM) | 102
56 | COc1cc(OC2CCN(C)CC2)ccc1Nc1ncc2c(n1)n(C1CCCC1)c(=O)n2C [AZ 3146] (100 nM) | 104
57 | CNC(=O)c1cccc(-c2ccc3c(N4CCOC[C@@H]4C)nc(N4CCOC[C@@H]4C)nc3n2)c1 [AZD2014] (100 nM) | 98.7
58 | O=C(/C=C/c1cccc(S(=O)(=O)Nc2ccccc2)c1)NO [Belinostat] (100 nM) | 100
59 | Cc1ccc(NC(=O)c2ccc(CN3CCN(C)CC3)cc2)cc1Nc1nc(-c2cccnc2)cs1 [Masitinib] (100 nM) | 103
60 | COC(=O)c1ccc2c(c1)NC(=O)/C2=C(\Nc1ccc(N(C)C(=O)CN2CCN(C)CC2)cc1)c1ccccc1 [Nintedanib] (100 nM) | 101
61 | S=P(N1CC1)(N1CC1)N1CC1 [Thio-TEPA] (500 nM) | 102
62 | CN(C)CCOc1ccc(/C(=C(/CCCl)c2ccccc2)c2ccccc2)cc1 [Toremifene] (100 nM) | 106

Each compound was assayed on DU-4475 in the same assay as above. Details: incubation time: 72 h.
How it was run: as §1

Row | SMILES | normalised response [%]
63 | N#Cc1ccc(COC[C@H]2O[C@@H](n3c(NCc4ccc(Cl)c(Cl)c4)nc4c(N)ncnc43)[C@H](O)[C@@H]2O)cc1 (100 nM) | 106
64 | COc1cc(O)c2c(c1)/C=C/C[C@H](O)[C@H](O)C(=O)/C=C\C[C@H](C)OC2=O [(5Z)-7-Oxozeaenol] (100 nM) | 96.9
65 | COc1cc(OC2CCN(C)CC2)ccc1Nc1ncc2c(n1)n(C1CCCC1)c(=O)n2C [AZ 3146] (100 nM) | 99.8
66 | CNC(=O)c1cccc(-c2ccc3c(N4CCOC[C@@H]4C)nc(N4CCOC[C@@H]4C)nc3n2)c1 [AZD2014] (100 nM) | 103
67 | O=C(/C=C/c1cccc(S(=O)(=O)Nc2ccccc2)c1)NO [Belinostat] (100 nM) | 99.4
68 | Cc1ccc(NC(=O)c2ccc(CN3CCN(C)CC3)cc2)cc1Nc1nc(-c2cccnc2)cs1 [Masitinib] (100 nM) | 99.3
69 | COC(=O)c1ccc2c(c1)NC(=O)/C2=C(\Nc1ccc(N(C)C(=O)CN2CCN(C)CC2)cc1)c1ccccc1 [Nintedanib] (100 nM) | 103
70 | S=P(N1CC1)(N1CC1)N1CC1 [Thio-TEPA] (500 nM) | 101
71 | CN(C)CCOc1ccc(/C(=C(/CCCl)c2ccccc2)c2ccccc2)cc1 [Toremifene] (100 nM) | 102

These compounds were tested on MDA-MB-231 in the same assay as above. Details: incubation time: 72 h.
How it was run: as §1

Row | SMILES | normalised response [%]
72 | N#Cc1ccc(COC[C@H]2O[C@@H](n3c(NCc4ccc(Cl)c(Cl)c4)nc4c(N)ncnc43)[C@H](O)[C@@H]2O)cc1 (100 nM) | 86.9
73 | COc1cc(O)c2c(c1)/C=C/C[C@H](O)[C@H](O)C(=O)/C=C\C[C@H](C)OC2=O [(5Z)-7-Oxozeaenol] (100 nM) | 109
74 | COc1cc(OC2CCN(C)CC2)ccc1Nc1ncc2c(n1)n(C1CCCC1)c(=O)n2C [AZ 3146] (100 nM) | 92.5
75 | CNC(=O)c1cccc(-c2ccc3c(N4CCOC[C@@H]4C)nc(N4CCOC[C@@H]4C)nc3n2)c1 [AZD2014] (100 nM) | 121
76 | O=C(/C=C/c1cccc(S(=O)(=O)Nc2ccccc2)c1)NO [Belinostat] (100 nM) | 76.3
77 | Cc1ccc(NC(=O)c2ccc(CN3CCN(C)CC3)cc2)cc1Nc1nc(-c2cccnc2)cs1 [Masitinib] (100 nM) | 91.5
78 | COC(=O)c1ccc2c(c1)NC(=O)/C2=C(\Nc1ccc(N(C)C(=O)CN2CCN(C)CC2)cc1)c1ccccc1 [Nintedanib] (100 nM) | 92.7
79 | S=P(N1CC1)(N1CC1)N1CC1 [Thio-TEPA] (500 nM) | 105
80 | CN(C)CCOc1ccc(/C(=C(/CCCl)c2ccccc2)c2ccccc2)cc1 [Toremifene] (100 nM) | 55.6

Reference: the supplement of paper PMC4862054
